For experiment [1], the target named is T1, human CB2R (Homo sapiens, UniProt P34972). Put plainly: CB2R mediated modulation of cAMP synthesis. The format is cell-based. Also on record: host or cells: CHO cells. Particulars: agonists decrease forskolin induced production of cAMP; CHO cells expressing human CB2R. As for the experimental part: B. CB2R Mediated Modulation of cAMP Synthesis:
Compounds of the invention were evaluated for their CB2 agonist or inverse agonistic activity in accordance with the following experimental method.
CHO cells expressing human CB2R (Euroscreen) were plated at a density of 5000 cells per well in 384 well plates and incubated overnight at 37° C. After removing the media, the cells were treated with test compounds diluted in stimulation buffer containing 1 mM IBMX, 0.25% BSA and 10 uM Forskolin. The assay was incubated for 30 minutes at 37° C. Cells were lysed and the cAMP concentration was measured using DiscoverX-XS cAMP kit, following the manufacturer's protocol. In this setting, agonists will decrease forskolin induced production of cAMP while inverse agonists will further increase forskolin induced production of cAMP. EC50 of agonists were calculated as follows. The maximal amount of cAMP produced by forskolin compared to the level of cAMP inhibited by 1 uM CP55940 is defined as 100%. The EC50 value of each test compound was determined as the concentration at which 50% of the forskolin-stimulated cAMP synthesis was inhibited. Data was analyzed using a four-parameter logistic model. (Model 205 of XLfit 4.0).

Experiment [2] addresses T1, human CB2R. Kind of experiment: Human CB2 receptor binding (3H-CP55940 competition, SPA). Particulars: through the use of the above described assays (CB1/CB2 binding, CB2R and CB1R cAMP); assay not specified further. Also on record: purchased Perkin Elmer Life and Analytical Sciences; host or cells: HEK293 EBNA cells, stably transfected. As for the experimental part:
A. Human CB1 and CB2 Receptor Binding:
CB2 membranes were purchased and made from HEK293 EBNA cells stably transfected with human CB2 receptor cDNA (Perkin Elmer Life and Analytical Sciences). CB1 membranes were isolated from HEK cells stably co-transfected with human CB1 receptor and Gα16 cDNA's. The membrane preparation was bound to scintillation beads (Ysi-Poly-L-lysine SPA beads, GE Healthcare) for 4 hours at room temperature in assay buffer containing 50 mM Tris, pH 7.5, 2.5 mM EDTA, 5 mM MgCl2, 0.8% fatty acid free Bovine Serum Albumin. Unbound membrane was removed by washing in assay buffer. Membrane-bead mixture was added to 96-well assay plates in the amounts of 15 ug membrane per well (CB2) or 2.5 ug per well (CB1) and 1 mg SPA bead per well. Compounds were added to the membrane-bead mixture in dose-response concentrations ranging from 1×10^−5 M to 1×10^−10 M with 0.25% DMSO, final. The competition reaction was initiated with the addition of ^3H-CP55940 (Perkin Elmer Life and Analytical Sciences) at a final concentration of 1.5 nM (CB2) or 2.5 nM (CB1). The reaction was incubated at room temperature for 18 hours and read on TopCount NXT plate reader. Total and non-specific binding was determined in the absence and presence of 1.25 uM Win 55212 (Sigma). IC50 values for each compound were calculated as the concentration of compound that inhibits the specific binding of the radioactively labeled ligand to the receptor by 50% using the XLFit 4.1 four parameter logistic model. IC50 values were converted to inhibition constant (Ki) values using Cheng-Prusoff equation.

Experimental findings from US7928103B2, “Compounds which modulate the CB2 receptor” (Boehringer Ingelheim International GmbH, priority 2006, dated 2011) are described below.

T1 sequence (P34972 whole entry): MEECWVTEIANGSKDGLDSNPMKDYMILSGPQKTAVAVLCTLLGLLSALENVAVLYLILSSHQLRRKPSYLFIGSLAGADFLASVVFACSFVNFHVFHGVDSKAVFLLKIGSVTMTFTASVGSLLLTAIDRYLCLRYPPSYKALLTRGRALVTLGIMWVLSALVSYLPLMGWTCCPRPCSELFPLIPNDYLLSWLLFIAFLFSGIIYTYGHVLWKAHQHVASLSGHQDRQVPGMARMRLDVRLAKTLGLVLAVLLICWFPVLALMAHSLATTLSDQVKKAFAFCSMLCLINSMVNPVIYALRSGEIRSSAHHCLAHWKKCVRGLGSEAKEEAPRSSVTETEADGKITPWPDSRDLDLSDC

`Fc1ccc(Nc2ccc(CN3CCO[C@@H](c4ccccc4)C3)cn2)cc1` [Example 29, (4-Fluoro-phenyl)-[5-((S)-2-phenyl-morpholin-4-ylmethyl)-pyridin-2-yl]-amine]: on human CB2R [1], the “found to exhibit agonistic activity” value is “exhibit agonistic activity”. Further, the “found to exhibit activity” value on human CB2R [2] is “exhibit activity”.

As to `Clc1ccc(Nc2ccc(CN3CCO[C@@H](c4ccccc4)C3)cn2)c(Cl)c1` [Example 19, (2,4-Dichloro-phenyl)-[5-((S)-2-phenyl-morpholin-4-ylmethyl)-pyridin-2-yl]-amine], on human CB2R [1], the “found to exhibit agonistic activity” value is listed as “exhibit agonistic activity”. The “found to exhibit activity” value at human CB2R [2] is recorded as “exhibit activity”.

Regarding `c1ccc([C@H]2CN(Cc3ccc(Nc4cnc5ccccc5c4)nc3)CCO2)cc1` [Example 11, [5-((S)-2-Phenyl-morpholin-4-ylmethyl)-pyridin-2-yl]-quinolin-3-yl-amine], on human CB2R [1], the “found to exhibit agonistic activity” value is reported as “exhibit agonistic activity”. In addition, the “found to exhibit activity” value at human CB2R [2] is given as “exhibit activity”.

In the case of `CCOc1ccc(Nc2ccc(CN3CCO[C@@H](c4ccccc4)C3)cn2)cc1` [Example 3, (4-Ethoxy-phenyl)-[5-((S)-2-phenyl-morpholin-4-ylmethyl)-pyridin-2-yl]-amine], on human CB2R [1], the “found to exhibit agonistic activity” value is given as “exhibit agonistic activity”. The “found to exhibit activity” value on human CB2R [2] is “exhibit activity”.

As to `CC(C)c1ccccc1Nc1ccc(CN2CCO[C@@H](c3ccccc3)C2)cn1` [Example 23, (2-Isopropyl-phenyl)-[5-((S)-2-phenyl-morpholin-4-ylmethyl)-pyridin-2-yl]-amine], the “found to exhibit agonistic activity” value on human CB2R [1] was “exhibit agonistic activity”. Also, the “found to exhibit activity” value at human CB2R [2] was “exhibit activity”.

Consider `COc1ccccc1Nc1ccc(CN2CCO[C@@H](c3ccccc3)C2)cn1` [Example 21, (2-Methoxy-phenyl)-[5-((S)-2-phenyl-morpholin-4-ylmethyl)-pyridin-2-yl]-amine], for which the “found to exhibit agonistic activity” value at human CB2R [1] is recorded as “exhibit agonistic activity”. Moreover, the “found to exhibit activity” value on human CB2R [2] was “exhibit activity”.

`c1ccc([C@H]2CN(Cc3ccc(Nc4cccc5ccccc45)nc3)CCO2)cc1` [Example 6, Naphthalen-1-yl-[5-((S)-2-phenyl-morpholin-4-ylmethyl)-pyridin-2-yl]-amine]: the “found to exhibit agonistic activity” value on human CB2R [1] is “exhibit agonistic activity”. Moreover, the “found to exhibit activity” value at human CB2R [2] is recorded as “exhibit activity”.

In the case of `Cc1ccc(Nc2ccc(CN3CCO[C@@H](c4ccccc4)C3)cn2)cc1` [Example 31, [5-((S)-2-Phenyl-morpholin-4-ylmethyl)-pyridin-2-yl]-p-tolyl-amine], at human CB2R [1], the “found to exhibit agonistic activity” value is “exhibit agonistic activity”. Besides, at human CB2R [2], the “found to exhibit activity” value is listed as “exhibit activity”.

Take `Clc1ccccc1Nc1ccc(CN2CCO[C@@H](c3ccccc3)C2)cn1` [Example 17, (2-Chloro-phenyl)-[5-((S)-2-phenyl-morpholin-4-ylmethyl)-pyridin-2-yl]-amine]: the “found to exhibit agonistic activity” value on human CB2R [1] is on record as “exhibit agonistic activity”. Further, at human CB2R [2], the “found to exhibit activity” value is “exhibit activity”.

On to `Clc1cccc(Nc2ccc(CN3CCO[C@@H](c4ccccc4)C3)cn2)c1` [Example 26, (3-Chloro-phenyl)-[5-((S)-2-phenyl-morpholin-4-ylmethyl)-pyridin-2-yl]-amine], for which the “found to exhibit agonistic activity” value at human CB2R [1] was “exhibit agonistic activity”. Besides, on human CB2R [2], the “found to exhibit activity” value is “exhibit activity”.

With `COc1ccc(Nc2ccc(CN3CCO[C@@H](c4ccccc4)C3)cn2)cc1` [Example 2, (4-Methoxy-phenyl)-[5-((S)-2-phenyl-morpholin-4-ylmethyl)-pyridin-2-yl]-amine], the “found to exhibit agonistic activity” value on human CB2R [1] is recorded as “exhibit agonistic activity”. Further, the “found to exhibit activity” value at human CB2R [2] is reported as “exhibit activity”.

With `CC(C)(C)c1cc(Nc2ccc(CN3CCO[C@@H](c4ccccc4)C3)cn2)no1` [Example 1, (5-tert-Butyl-isoxazol-3-yl)-[5-((S)-2-phenyl-morpholin-4-ylmethyl)-pyridin-2-yl]-amine], the “found to exhibit agonistic activity” value on human CB2R [1] is “exhibit agonistic activity”. The “found to exhibit activity” value on human CB2R [2] is given as “exhibit activity”.

Turning to `Fc1cccc(Nc2ccc(CN3CCO[C@@H](c4ccccc4)C3)cn2)c1` [Example 25, (3-Fluoro-phenyl)-[5-((S)-2-phenyl-morpholin-4-ylmethyl)-pyridin-2-yl]-amine], the “found to exhibit agonistic activity” value at human CB2R [1] is “exhibit agonistic activity”. Moreover, at human CB2R [2], the “found to exhibit activity” value was “exhibit activity”.

On to `c1ccc([C@H]2CN(Cc3ccc(Nc4cccnc4)nc3)CCO2)cc1` [Example 9, [5-((S)-2-Phenyl-morpholin-4-ylmethyl)-pyridin-2-yl]-pyridin-3-yl-amine], for which the “found to exhibit agonistic activity” value on human CB2R [1] is on record as “exhibit agonistic activity”. In addition, at human CB2R [2], the “found to exhibit activity” value is recorded as “exhibit activity”.

For the molecule `FC(F)(F)Oc1ccccc1Nc1ccc(CN2CCO[C@@H](c3ccccc3)C2)cn1` [Example 32, [5-((S)-2-Phenyl-morpholin-4-ylmethyl)-pyridin-2-yl]-(2-trifluoromethoxy-phenyl)-amine], at human CB2R [1], the “found to exhibit agonistic activity” value was “exhibit agonistic activity”. The “found to exhibit activity” value on human CB2R [2] is reported as “exhibit activity”.

For `CCOc1ccccc1Nc1ccc(CN2CCO[C@@H](c3ccccc3)C2)cn1` [Example 22, (2-Ethoxy-phenyl)-[5-((S)-2-phenyl-morpholin-4-ylmethyl)-pyridin-2-yl]-amine], the “found to exhibit agonistic activity” value at human CB2R [1] is “exhibit agonistic activity”. On human CB2R [2], the “found to exhibit activity” value is “exhibit activity”.

Take `c1ccc(Oc2ccc(CN3CCO[C@@H](c4ccccc4)C3)cc2)cc1` [Example 34, (S)-4-(4-Phenoxy-benzyl)-2-phenyl-morpholine]: the “found to exhibit agonistic activity” value on human CB2R [1] was “exhibit agonistic activity”. For the same molecule, the “found to exhibit activity” value on human CB2R [2] is listed as “exhibit activity”.

Regarding `Clc1cccc(Nc2ccc(CN3CCO[C@@H](c4ccccc4)C3)cn2)c1Cl` [Example 18, (2,3-Dichloro-phenyl)-[5-((S)-2-phenyl-morpholin-4-ylmethyl)-pyridin-2-yl]-amine], the “found to exhibit agonistic activity” value on human CB2R [1] is “exhibit agonistic activity”. For the same molecule, the “found to exhibit activity” value at human CB2R [2] is listed as “exhibit activity”.

In the case of `c1ccc([C@H]2CN(Cc3ccc(Nc4cccc5ncccc45)nc3)CCO2)cc1` [Example 12, [5-((S)-2-Phenyl-morpholin-4-ylmethyl)-pyridin-2-yl]-quinolin-5-yl-amine], the “found to exhibit agonistic activity” value at human CB2R [1] is “exhibit agonistic activity”. Moreover, at human CB2R [2], the “found to exhibit activity” value is “exhibit activity”.

For the molecule `CCc1ccc(Nc2ccc(CN3CCO[C@@H](c4ccccc4)C3)cn2)cc1` [Example 5, (4-Ethyl-phenyl)-[5-((S)-2-phenyl-morpholin-4-ylmethyl)-pyridin-2-yl]-amine], the “found to exhibit agonistic activity” value at human CB2R [1] is given as “exhibit agonistic activity”. The “found to exhibit activity” value on human CB2R [2] is reported as “exhibit activity”.

As for `FC(F)(F)Oc1ccc(Nc2ccc(CN3CCO[C@@H](c4ccccc4)C3)cn2)cc1` [Example 4, [5-((S)-2-Phenyl-morpholin-4-ylmethyl)-pyridin-2-yl]-(4-trifluoromethoxy-phenyl)-amine], the “found to exhibit agonistic activity” value on human CB2R [1] is “exhibit agonistic activity”. The “found to exhibit activity” value at human CB2R [2] is reported as “exhibit activity”.

`Clc1ccc(Nc2ccc(CN3CCO[C@@H](c4ccccc4)C3)cn2)cc1` [Example 30, (4-Chloro-phenyl)-[5-((S)-2-phenyl-morpholin-4-ylmethyl)-pyridin-2-yl]-amine]: the “found to exhibit agonistic activity” value on human CB2R [1] is given as “exhibit agonistic activity”. For the same molecule, the “found to exhibit activity” value on human CB2R [2] is “exhibit activity”.

As for `Cc1ccccc1Nc1ccc(CN2CCO[C@@H](c3ccccc3)C2)cn1` [Example 24, [5-((S)-2-Phenyl-morpholin-4-ylmethyl)-pyridin-2-yl]-o-tolyl-amine], on human CB2R [1], the “found to exhibit agonistic activity” value is given as “exhibit agonistic activity”. On human CB2R [2], the “found to exhibit activity” value was “exhibit activity”.
